From patent US20240261236A1, “METHODS OF USING NMDA RECEPTOR ANTAGONISTS” (Seelos Therapeutics, Inc., priority 2021, published 2024)

Columns and labels:
[1] = test system: adults with major depressive disorder (MDD) who are at imminent risk of suicide; assay: S-STS CMCM clinician judgment, risk of suicide at this time; format: in vivo, human; conditions: 90 mg IN+SOC; for S-STS CMCM score (range 0-9; risk of suicide at this time, FIGS. 20A-20B): 24 hours post-administration
Source text: The S-STS CMCM (version 01/01/19) is a clinician-rated outcome measure which assesses SI/B on a standard 22-item scale, as well as multiple patient and clinician-rated items. The first 16 items are rated on a Likert-type scale ranging from “not at all” (0 units) to “extremely” (4 units), where select scoring (i.e., 4 specific items are scored based on the highest score on 2 of those items) yields a total score ranging from 0 units to 52 units. The final 6 items are used only when the patient misses a visit and is unable to complete the scale; if that missed visit is due to attempted or completed suicide, the possible maximum score is 100. The CMCM also yields 5 different single-item global assessments: 1) subject-rated likelihood of a suicide attempt; 2) subject-rated treatment needed; 3) clinician global severity of suicidal impulses, thoughts, and behaviors; 4) clinician judgment of suicide risk at this time and level of management needed for suicidality; and 5) clinician judgment of subject's likelihood of making a suicide attempt or of dying by suicide in the next 7 days.
(§1) The secondary endpoints are the change from baseline at 24 hours, as well as at Day 16, in the following: • (1) S-STS total score • (2) MADRS Total at Day 16 (only) • (3) Clinical Global Impression (CGI) of Severity for SI/B (CGIS-SI/B) and Change in SI/B (CGIC-SI/B) • (4) Patient Global Impression (PGI) of Severity for SI/B (PGIS-SI/B) and Change in SI/B (PGIC-SI/B • (5) S-STS Clinician-Rated Global Severity of Suicidal Impulses, Thoughts, and Behaviors • (6) S-STS Clinician judgment of subject's risk of a suicide attempt or death by suicide at this time • (7) S-STS Clinician judgment of subject's likelihood (risk) of making a suicide attempt or of dying by suicide in the next 7 days • (8) S-STS Subject-rated global severity of suicidal impulses, thoughts, and behavior • (9) S-STS Subject-rated treatment needed score • (10) MADRS item 10 response rate (response ≤3 units) • (11) MADRS Total response (total score ≥50% reduction from baseline) • (12) MADRS Total remission (total score ≤12 units)

[2] = test system: adults with major depressive disorder (MDD) who are at imminent risk of suicide; assay: MADRS item 10 (suicidal thoughts), Phase 2 Part 1; format: in vivo, human; conditions: for MADRS item 10 (suicidality) score: 24 hours post-administration, baseline 5 units; for MADRS Item 10 mean score: baseline 5.2; for MADRS Suicide Item-10 response rate: summary through Day 29/30
Source text: The Montgomery-Åsberg Depression Rating Scale (MADRS) is a diagnostic questionnaire that can be used to measure the severity of a depressive episode in a subject. In some embodiments, the MADRS can be used to measure suicidal ideation. For example, the MADRS includes 10 items directed to the following: 1) apparent sadness (e.g., representing despondency, gloom and despair that is more than just ordinary transient low spirits that is reflected in speech, facial expression, and posture); 2) reported sadness (e.g., representing reports of depressed mood, regardless of whether it is reflected in appearance or not and can include low spirits, despondency or the feeling of being beyond help and without hope); 3) inner tension (e.g., representing feelings of ill-defined discomfort, edginess, inner turmoil, mental tension mounting to either panic, dread or anguish); 4) reduced sleep (e.g., representing the experience of reduced duration or depth of sleep compared to the subject's own normal pattern when well); 5) reduced appetite (e.g., representing the feeling of a loss of appetite compared with when-well); 6) concentration difficulties (e.g., representing difficulties in collecting one's thoughts mounting to an incapacitating lack of concentration); 7) lassitude (e.g., representing difficulty in getting started or slowness in initiating and performing everyday activities); 8) inability to feel (e.g., representing the subjective experience of reduced interest in the surroundings, or activities that normally give pleasure, and the ability to react with adequate emotion to circumstances or people is reduced); 9) pessimistic thoughts (e.g., representing thoughts of guilt, inferiority, self-reproach, sinfulness, remorse and ruin); and 10) suicidal thoughts (e.g., representing the feeling that life is not worth living, that a natural death would be welcome, suicidal thoughts, and preparations for suicide). Each item is rated from 0 units to 6 units, with 0 reflecting that the subject is not at all as described by the item and 6 reflecting that the subject is extremely like what is described by the item. […] As another example, for suicidal thoughts, a score of 0 units can indicate that the subject enjoys life or takes it as it comes; a score of 2 units can indicate that the subject is weary of life and may have fleeting suicidal thoughts; a score of 4 units can indicate that the subject feels he or she would probably be better off dead (e.g., suicidal thoughts are common, and suicide is considered as a possible solution, but without specific plans or intention); and a score of 6 units can indicate that the subject has explicit plans for suicide when there is an opportunity (e.g., the subject has made active preparations for suicide). Thus, the total score, after summation of each score for each item, is on a scale of 0 units to 60 units.
In some embodiments, item 10, e.g., suicidal thoughts, of the MADRS can be used to measure suicidal ideation.
as §1, with “≤12 units) […]” for “≤12 units)”

[3] = test system: adults with major depressive disorder (MDD) who are at imminent risk of suicide; assay: C-SSRS, Phase 2 Part 1; conditions: 90 mg IN+SOC; for C-SSRS score (yes or no) for suicidal ideation: 24 hours post-administration, baseline yes
[4] = Leung and Baillie 1986; cited from earlier work

For `CNC1(c2ccccc2Cl)CCCCC1=O` (racemic) [intranasal racemic ketamine, 1:1 mixture of the two enantiomers of ketamine: (R)-2-(2-chlorophenyl)-2-(methylamino)cyclohexanone and (S)-2-(2-chlorophenyl)-2-(methylamino)cyclohexanone], the “S-STS CMCM score (range 0-9; risk of suicide at this time, FIGS. 20A-20B)” value ([1]; Subject 1, baseline 7 units) was 3 units, the “S-STS CMCM score (range 0-9; risk of suicide at this time)” value ([1]; Subject 1, Day 9) was 2 units and the “S-STS CMCM score (range 0-9; risk of suicide at this time, FIGS. 20A-20B)” value ([1]; Subject 2, from 7 units) was 3 units. For the same compound, the “S-STS CMCM score (range 0-9; risk of suicide at this time)” value ([1]; Subject 2, Day 9) was “zero”, the “S-STS CMCM score (range 0-9; risk of suicide at this time)” value ([1]; Subjects 1 and 2, Day 8) was 2 units and the “sustained response on MADRS Item 10, time after the final administration” value ([2]; 90 mg IN+SOC) was 15 days. The “MADRS item 10 (suicidality) score” value ([2]; 90 mg IN+SOC, Subject 1, range 0-6) was 0 units, the “MADRS item 10 (suicidality) score” value ([2]; 90 mg IN+SOC, second subject (not given)) was 0 units and the “subjects who experienced MADRS Item 10 response” value ([2]; 24 hours post-dose) was 94.1%. For the same compound, the “MADRS Item 10 mean score” value ([2]; Day 1) was 0.8, the “subjects who experienced MADRS Item 10 response” value ([2]; Day 16) was 100% and the “MADRS Item 10 mean score” value ([2]; Day 29) was 0.0. For the same compound, the “subjects who experienced MADRS Item 10 response” value ([2]; study end (Day 29/30)) was 100%, the “MADRS Suicide Item-10 response rate” value ([2]; Day 1) was 94% and the “MADRS Suicide Item-10 response rate” value ([2]; Day 16) was 100%. The “C-SSRS score (yes or no) for suicidal ideation” value ([3]; Subject 1) was “no”, the “C-SSRS score (yes or no) for suicidal ideation” value ([3]; Subject 2) was “no” and the “C-SSRS scores for suicidal ideation and suicidal behavior” value ([3]; both subjects, remainder of the study) was “no”. The anesthetic activity [4] was “anesthetic activity”.
